# Experimental data as given in US10933063B2 (priority 2017, dated 2021).
# Target: BTK (Homo sapiens (Human), UniProt Q06187)
# Test: biochemical
# BTK, sequence (Q06187 whole entry, looked up, species assumed): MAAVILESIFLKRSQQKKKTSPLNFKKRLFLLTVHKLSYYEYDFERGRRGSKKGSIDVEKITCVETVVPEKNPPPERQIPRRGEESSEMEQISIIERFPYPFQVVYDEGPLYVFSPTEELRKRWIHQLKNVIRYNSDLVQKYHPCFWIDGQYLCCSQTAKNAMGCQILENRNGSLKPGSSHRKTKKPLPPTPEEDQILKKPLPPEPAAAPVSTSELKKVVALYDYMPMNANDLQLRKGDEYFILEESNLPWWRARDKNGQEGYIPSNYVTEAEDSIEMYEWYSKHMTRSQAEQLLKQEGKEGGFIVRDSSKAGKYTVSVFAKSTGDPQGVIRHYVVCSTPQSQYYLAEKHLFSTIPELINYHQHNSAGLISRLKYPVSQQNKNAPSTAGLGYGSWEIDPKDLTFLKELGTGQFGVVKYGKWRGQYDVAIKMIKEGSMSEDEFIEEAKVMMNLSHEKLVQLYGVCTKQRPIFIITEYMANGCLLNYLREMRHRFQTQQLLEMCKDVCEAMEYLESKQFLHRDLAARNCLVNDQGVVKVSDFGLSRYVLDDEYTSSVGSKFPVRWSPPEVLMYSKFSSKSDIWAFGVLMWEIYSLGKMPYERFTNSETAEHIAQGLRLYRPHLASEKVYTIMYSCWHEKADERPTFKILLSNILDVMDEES
structure (smiles),measurement,value
"CC#CC(=O)N1CCC[C@@H](c2nc(-c3ccc(C(=O)Nc4ccccn4)cc3)c3cnccn23)C1 [Example 167, (R)-4-(3-(1-(but-2-ynoyl)piperidin-3-yl)imidazo [1,5-a]pyrazin-1-yl)-N-(pyridin-2-yl)benzamide]",IC50,1000 to 10000 nM
"CC#CC(=O)N1CCC[C@H]1c1nc(-c2ccc(Oc3cccc(OC)c3F)cc2)c2c(CO)nccn12 [Example 123, (S)-1-(2-(1-(4-(2-fluoro-3-methoxyphenoxy)phenyl)-8-(hydroxymethyl)imidazo[1,5-a]pyrazin-3-yl)pyrrolidin-1-yl)but-2-yn-1-one]",IC50,100 to 1000 nM
"C=CC(=O)N1CCC[C@H]1c1nc(-c2ccc(Oc3ccc(OC)cc3)cc2)c2cnccn12 [Example 9, (S)-1-(2-(1-(4-(4-methoxyphenoxy)phenyl)imidazo[1,5-a]pyrazin-3-yl)pyrrolidin-1-yl)prop-2-en-1-one]",IC50,10 to 100 nM
"CC#CC(=O)N1CCC[C@H]1c1nc(-c2ccc(COc3cccc(F)c3F)cc2)c2cnccn12 [Example 130, (S)-1-(2-(1-(4-((2,3-difluorophenoxy)methyl)phenyl)imidazo[1,5-a]pyrazin-3-yl)pyrrolidin-1-yl)but-2-yn-1-one]",IC50,1000 to 10000 nM
COc1cccc(Oc2ccc(-c3nc([C@@H]4CCCN4C(=O)C(N)=O)n4ccncc34)cc2)c1F [Example 33],IC50,1000 to 10000 nM
"CC#CC(=O)N1CCC[C@H]1c1nc(-c2ccc(Oc3cccc(OC)c3C)cc2)c2cnccn12 [Example 21, (S)-1-(2-(1-(4-(3-methoxy-2-methylphenoxy)phenyl)imidazo[1,5-a]pyrazin-3-yl)pyrrolidin-1-yl)but-2-yn-1-one]",IC50,100 to 1000 nM
"CC#CC(=O)N1CCC[C@H]1c1nc(-c2ccc(Oc3ccccc3OC)cc2)c2cnccn12 [Example 24, (S)-1-(2-(1-(4-(2-methoxyphenoxy)phenyl)imidazo[1,5-a]pyrazin-3-yl)pyrrolidin-1-yl)but-2-yn-1-one]",IC50,1000 to 10000 nM
"CC#CC(=O)N1CCCC[C@H]1c1nc(-c2ccc(OCc3cccc(F)c3)cc2)c2c(C)nccn12 [Example 140, (S)-1-(2-(1-(4-((3-fluorobenzyl)oxy)phenyl)-8-methylimidazo[1,5-a]pyrazin-3-yl)piperidin-1-yl)but-2-yn-1-one]",IC50,100 to 1000 nM
"C=CC(=O)N1CCC[C@H]1c1nc(-c2ccc(COc3cccc(F)c3)cc2)c2cnccn12 [Example 145, (S)-1-(2-(1-(4-((3-fluorophenoxy)methyl)phenyl)imidazo[1,5-a]pyrazin-3-yl)pyrrolidin-1-yl)prop-2-en-1-one]",IC50,10 to 100 nM
"C=CC(=O)N1CC[C@@H](c2nc(-c3ccc(C(=O)Nc4ccccn4)cc3)c3c(C)ncc(C)n23)C1 [Example 182, (R)-4-(3-(1-acryloylpyrrolidin-3-yl)-5,8-dimethylimidazo [1,5-a]pyrazin-1-yl)-N-(pyridin-2-yl)benzamide]",IC50,10 to 100 nM
"CC#CC(=O)N1CCC[C@H]1c1nc(-c2ccc(OCc3cccc(Cl)c3)cc2)c2cnccn12 [Example 142, (S)-1-(2-(1-(4-((3-chlorobenzyl)oxy)phenyl)imidazo[1,5-a]pyrazin-3-yl)pyrrolidin-1-yl)but-2-yn-1-one]",IC50,1000 to 10000 nM
"C=CC(=O)N1CCC[C@H]1c1nc(-c2ccc(C(=O)Nc3ccccn3)cc2)c2cncc(C)n12 [Example 172, (S)-4-(3-(1-aeryloylpyrrolidin-2-yl)-5-methylimidazo [1,5-a]pyrazin-l-yl)-N-(pyridin-2-yl)benzamide]",IC50,10 to 100 nM
"CC#CC(=O)N1CC[C@@H](c2nc(-c3ccc(C(=O)Nc4ccccn4)cc3)c3c(C)ncc(OCC)n23)C1 [Example 205, (R)-4-(3-(1-(but-2-ynoyl)pyrrolidin-3-yl)-5-ethoxy-8-methylimidazo[1,5-a]pyrazin-1-yl)-N-(pyridin-2-yl)benzamide]",IC50,10 to 100 nM
"C=CC(=O)N1CC[C@@H](c2nc(-c3ccc(Oc4cccc(OC)c4F)cc3)c3c(C(C)C)nccn23)C1 [Example 111, (R)-1-(3-(1-(4-(2-fluoro-3-methoxyphenoxy)phenyl)-8-isopropylimidazo[1,5-a]pyrazin-3-yl)pyrrolidin-1-yl)prop-2-en-1-one]",IC50,1000 to 10000 nM
"CC#CC(=O)N1CCCC[C@H]1c1nc(-c2ccc(OCc3cccc(F)c3)cc2)c2cnccn12 [Example 153, (S)-1-(2-(1-(4-((3-fluorobenzyl)oxy)phenyl)imidazo[1,5-a]pyrazin-3-yl)piperidin-1-yl)but-2-yn-1-one]",IC50,1000 to 10000 nM
"C=CC(=O)N1CCCC[C@H]1c1nc(-c2ccc(OCc3cccc(F)c3)cc2)c2c(C)nccn12 [Example 139, (S)-1-(2-(1-(4-((3-fluorobenzyl)oxy)phenyl)-8-methylimidazo[1,5-a]pyrazin-3-yl)piperidin-1-yl)prop-2-en-1-one]",IC50,10 to 100 nM
"CC#CC(=O)N1CCCC[C@H]1c1nc(-c2ccc(COc3cccc(F)c3)cc2)c2c(C)nccn12 [Example 157, (S)-1-(2-(1-(4-((3-fluorophenoxy)methyl)phenyl)-8-methylimidazo[1,5-a]pyrazin-3-yl)piperidin-1-yl)but-2-yn-1-one]",IC50,100 to 1000 nM
"CC#CC(=O)N1CCC[C@H]1c1nc(-c2ccc(OCc3cccc(F)c3)cc2)c2cnccn12 [Example 138, (S)-1-(2-(1-(4-((3-fluorobenzyl)oxy)phenyl)imidazo[1,5-a]pyrazin-3-yl)pyrrolidin-1-yl)but-2-yn-1-one]",IC50,1000 to 10000 nM
"C=CC(=O)N1CC[C@@H](c2nc(-c3ccc(Oc4cccc(OC)c4F)cc3)c3cncc(C)n23)C1 [Example 72, (R)-1-(3-(1-(4-(2-fluoro-3-methoxyphenoxy)phenyl)-5-methylimidazo[1,5-a]pyrazin-3-yl)pyrrolidin-1-yl)prop-2-en-1-one]",IC50,10 to 100 nM
"C=CC(=O)N1CCC[C@@H](c2nc(-c3ccc(Oc4cccc(OC)c4F)cc3)c3cncc(C)n23)C1 [Example 70, (R)-1-(3-(1-(4-(2-fluoro-3-methoxyphenoxy)phenyl)-5-methylimidazo[1,5-a]pyrazin-3-yl)piperidin-1-yl)prop-2-en-1-one]",IC50,10 to 100 nM
"CC#CC(=O)N1CC[C@@H](c2nc(-c3ccc(Oc4cccc(OC)c4F)cc3)c3c(CC)nccn23)C1 [Example 107, (R)-1-(3-(8-ethyl-1-(4-(2-fluoro-3-methoxyphenoxy)phenyl)imidazo[1,5-a]pyrazin-3-yl)pyrrolidin-1-yl)but-2-yn-1-one]",IC50,10 to 100 nM
"C=CC(=O)N1CCCC[C@H]1c1nc(-c2ccc(Oc3cccc(Cl)c3F)cc2)c2c(C)nccn12 [Example 42, (S)-1-(2-(1-(4-(3-chloro-2-fluorophenoxy)phenyl)-8-methylimidazo[1,5-a]pyrazin-3-yl)piperidin-1-yl)prop-2-en-1-one]",IC50,10 to 100 nM
"CC#CC(=O)N1CCC[C@H]1c1nc(-c2ccc(Oc3cccc(OC)c3F)cc2)c2c(C)ncc(C)n12 [Example 65, (S)-1-(2-(1-(4-(2-fluoro-3-methoxyphenoxy)phenyl)-5,8-dimethylimidazo[1,5-a]pyrazin-3-yl)pyrrolidin-1-yl)but-2-yn-1-one]",IC50,10 to 100 nM
"CC#CC(=O)N1CCC[C@H]1c1nc(-c2ccc(C(=O)Nc3cc(C(F)(F)F)ccn3)cc2F)c2c(CO)nccn12 [Example 208, (S)-4-(3-(1-(but-2-ynoyl)pyrrolidin-2-yl)-8-(hydroxymethyl)imidazo [1,5-a]pyrazin-1-yl)-3-fluoro-N-(4-(trifluoromethyl)pyridin-2-yl)benzamide]",IC50,100 to 1000 nM
"C=CC(=O)N1CC[C@@H](c2nc(-c3ccc(C(=O)Nc4ccccn4)cc3)c3cnccn23)C1 [Example 176, (R)-4-(3-(1-acryloylpyrrolidin-3-yl)imidazo[1,5-a]pyrazin-1-yl)-N-(pyridin-2-yl)benzamide]",IC50,10 to 100 nM
"CC#CC(=O)N1CC[C@@H](c2nc(-c3ccc(Oc4cccc(OC)c4F)cc3)c3cncc(C)n23)C1 [Example 73, (R)-1-(3-(1-(4-(2-fluoro-3-methoxyphenoxy)phenyl)-5-methylimidazo[1,5-a]pyrazin-3-yl)pyrrolidin-1-yl)but-2-yn-1-one]",IC50,10 to 100 nM
"CC#CC(=O)N1CCCC[C@H]1c1nc(-c2ccc(Oc3cccc(F)c3)cc2)c2c(C)nccn12 [Example 56, (S)-1-(2-(1-(4-(3-fluorophenoxy)phenyl)-8-methylimidazo[1,5-a]pyrazin-3-yl)piperidin-1-yl)but-2-yn-1-one]",IC50,10 to 100 nM
"CC#CC(=O)N1CC[C@@H](c2nc(-c3ccc(Oc4cccc(OC)c4F)cc3)c3cncc(OC4CCOC4)n23)C1 (stereo partly drawn) [Example 99, 1-((3R)-3-(1-(4-(2-fluoro-3-methoxyphenoxy)phenyl)-5-((tetrahydrofuran-3-yl)oxy)imidazo[1,5-a]pyrazin-3-yl)pyrrolidin-1-yl)but-2-yn-1-one]",IC50,10 to 100 nM
"C=CC(=O)N1CCCC[C@H]1c1nc(-c2ccc(COc3ccc(F)c(F)c3)cc2)c2cnccn12 [Example 148, (S)-1-(2-(1-(4-((3,4-difluorophenoxy)methyl)phenyl)imidazo[1,5-a]pyrazin-3-yl)piperidin-1-yl)prop-2-en-1-one]",IC50,100 to 1000 nM
"CC#CC(=O)N1CCC[C@H]1c1nc(-c2ccc(C(=O)Nc3ccccn3)cc2)c2c(CO)nccn12 [Example 207, (S)-4-(3-(1-(but-2-ynoyl)pyrrolidin-2-yl)-8-(hydroxymethyl)imidazo [1,5-a]pyrazin-1-yl)-N-(pyridin-2-yl)benzamide]",IC50,100 to 1000 nM
"C=CC(=O)N1CCC[C@@H](c2nc(-c3ccc(Oc4cccc(OC)c4F)cc3)c3c(C)ncc(C)n23)C1 [Example 76, (R)-1-(3-(1-(4-(2-fluoro-3-methoxyphenoxy)phenyl)-5,8-dimethylimidazo[1,5-a]pyrazin-3-yl)piperidin-1-yl)prop-2-en-1-one]",IC50,10 to 100 nM
"COc1cccc(Oc2ccc(-c3nc([C@@H]4CCCN(C(=O)C(N)=O)C4)n4ccncc34)cc2)c1F [Example 3, (R)-2-(3-(1-(4-(2-fluoro-3-methoxyphenoxy)phenyl)imidazo[1,5-a]pyrazin-3-yl)piperidin-1-yl)-2-oxoacetamide]",IC50,1000 to 10000 nM
"C=CC(=O)N1CCC[C@H]1c1nc(-c2ccc(COc3cccc(OC)c3F)cc2)c2cnccn12 [Example 161, (S)-1-(2-(1-(4-((2-fluoro-3-methoxyphenoxy)methyl)phenyl)imidazo[1,5-a]pyrazin-3-yl)pyrrolidin-1-yl)prop-2-en-1-one]",IC50,10 to 100 nM
